Key:
Experiment in all cases: cells
Design in all cases: Cell growth inhibition, sulforhodamine B total protein staining
RD = conditions: Homo sapiens, RD; 72 h growth; read-out: Cell growth inhibition IC50/µM
Outline: (§1)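 72 h exposure of a 94-cell-line panel to Glupin; growth measured by sulforhodamine B total-protein staining after TCA fixation (10% adherent, 50% suspension/semi-adherent, 1 h at 4 °C). IC50 derived from growth inhibition.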

T24 = conditions: Homo sapiens, T-24; 72 h growth; read-out: Cell growth inhibition IC50/µM
Outline: as §1

IMR90 = conditions: Homo sapiens, IMR-90; 72 h growth; read-out: Cell growth inhibition IC50/µM
Outline: as §1

JAR = conditions: 72 h growth; read-out: Cell growth inhibition IC50/µM
Outline: as §1

HS578T = conditions: Homo sapiens, Hs-578T; 72 h growth; read-out: Cell growth inhibition IC50/µM
Outline: as §1

MDAMB231 = conditions: Homo sapiens, MDA-MB-231; 72 h growth; read-out: Cell growth inhibition IC50/µM
Outline: as §1

EJ28 = conditions: Homo sapiens, EJ-28; 72 h growth; read-out: Cell growth inhibition IC50/µM
Outline: as §1

HT1080 = conditions: Homo sapiens, HT-1080; 72 h growth; read-out: Cell growth inhibition IC50/µM
Outline: as §1

MG63 = conditions: Homo sapiens, MG-63; 72 h growth; read-out: Cell growth inhibition IC50/µM
Outline: as §1

UO31 = conditions: Homo sapiens, UO-31; 72 h growth; read-out: Cell growth inhibition IC50/µM
Outline: as §1

PANC1005 = conditions: Homo sapiens, Panc1005; 72 h growth; read-out: Cell growth inhibition IC50/µM
Outline: as §1

NCIH358M = conditions: NCI-H358M; 72 h growth; read-out: Cell growth inhibition IC50/µM
Outline: as §1

SKNSH = conditions: Homo sapiens, SK-N-SH; 72 h growth; read-out: Cell growth inhibition IC50/µM
Outline: as §1

PLCPRF5 = conditions: Homo sapiens, PLC-PRF-5; 72 h growth; read-out: Cell growth inhibition IC50/µM
Outline: as §1

SKMEL28 = conditions: Homo sapiens, SK-MEL-28; 72 h growth; read-out: Cell growth inhibition IC50/µM
Outline: as §1

HCT15 = conditions: Homo sapiens, HCT-15; 72 h growth; read-out: Cell growth inhibition IC50/µM
Outline: as §1

ASPC1 = conditions: Homo sapiens, ASPC1; 72 h growth; read-out: Cell growth inhibition IC50/µM
Outline: as §1

SUDHL10 = conditions: Homo sapiens, SU-DHL10; 72 h growth; read-out: Cell growth inhibition IC50/µM
Outline: as §1

EFO21 = conditions: Homo sapiens, EFO-21; 72 h growth; read-out: Cell growth inhibition IC50/µM
Outline: as §1

MDAMB435 = conditions: Homo sapiens, MDA-MB-435; 72 h growth; read-out: Cell growth inhibition IC50/µM
Outline: as §1

NCIH292 = conditions: Homo sapiens, NCI-H292; 72 h growth; read-out: Cell growth inhibition IC50/µM
Outline: as §1

CLS439 = conditions: 72 h growth; read-out: Cell growth inhibition IC50/µM
Outline: as §1

SKMEL5 = conditions: Homo sapiens, SK-MEL-5; 72 h growth; read-out: Cell growth inhibition IC50/µM
Outline: as §1

IC50 (T24): 0.243 µM
IC50 (MDAMB231): 8.38 µM
IC50 (HT1080): 0.118 µM
IC50 (PANC1005): 0.269 µM
IC50 (SKNSH): 0.084 µM
IC50 (SKMEL28): > 30 µM
IC50 (HCT15): 0.407 µM
IC50 (ASPC1): 0.695 µM
IC50 (SUDHL10): 0.219 µM
IC50 (MDAMB435): 0.513 µM
IC50 (SKMEL5): > 30 µM
SMILES: CCOC(=O)Cn1c2c(c3ccccc31)C[C@@H]1C[C@H]2C(OC)CN1C(=O)c1cccnc1SC (single isomer, unassigned; (+)) [(+)-5a, Glupin]
IC50 (RD): 0.842 µM
IC50 (IMR90): > 30 µM
IC50 (JAR): 0.886 µM
IC50 (HS578T): 0.12 µM
IC50 (EJ28): 1.39 µM
IC50 (MG63): > 30 µM
IC50 (UO31): 0.109 µM
IC50 (NCIH358M): > 30 µM
IC50 (PLCPRF5): > 30 µM
IC50 (EFO21): > 30 µM
IC50 (NCIH292): > 30 µM
IC50 (CLS439): 0.24 µM

— paper PMC6900016, “Synthesis of Indomorphan Pseudo‐Natural Product Inhibitors of Glucose Transporters GLUT‐1 and ‐3” (Angewandte Chemie (International Ed. in English), 2019)
